# Entries after “also recorded” stand apart in the source; their conditions may differ.
# Experiments:
# NMDA receptor NR1a-NR2A = NMDA receptor NR1a-NR2A (Homo sapiens, UniProt Q05586+Q12879); assay: Glutamate-evoked currents at NR1a-NR2A receptors in Xenopus oocytes (two electrode voltage-clamp); assay type: cell-based
# Method: (§1) All experiments were carried out at receptors expressed in Xenopus oocytes using the method of cDNA expression. Currents evoked by glutamate were recorded using the standard two electrode voltage-clamp configuration (TVEC). Xenopus oocytes were prepared and injected using standard procedures.
# Briefly, ovaries are harvested from Xenopus Laevis females that have been deeply anesthetized and pithed following the animal rights rule from the Geneva canton. A small piece of ovary is isolated for immediate preparation while the remaining part is placed at 4° C. in a sterile Barth solution containing in mM NaCl 88, KCl 1, NaHCO3 2.4, HEPES 10, MgSO4.7H2O 0.82, Ca(NO3)2.4H2O 0.33, CaCl2.6H2O 0.41, at pH 7.4, and supplemented with 20 μg/ml of kanamycine, 100 unit/ml penicillin and 100 μg/ml streptomycin. On the second day following dissociation, oocytes are injected with 2 ng of cDNA per oocyte containing the NR1a-NR2A or NR1a-NR2B using an automated injector (Hogg et al., J. Neurosci. Methods, 2008). […] Cells were held at −80 mV. Data were filtered at 10 Hz, captured at 100 Hz and analyzed using HiQ proprietary data acquisition and analysis software running under Matlab (Mathworks Inc.).
# Oocytes expressing the NR1a-NR2A or NR1a-NR2B receptors were challenged at periodic intervals with a glutamate test pulse. Test drug was then applied during a sustained period and its effects monitored by measuring the amplitude and time course of the glutamate evoked currents.
# Experiments were carried out with the NR1a-NR2A and NR1a-NR2B at least in triplicate. Positive reference compounds (ketamine and MK-801) were tested using the same protocol.
# (§2) To further evaluate effects of TC-5214, experiments using sustained exposure to this compound followed by a recovery period were carried out at NR1a-NR2A and NR1a-NR2B receptors. Measurements were made with (nM) 0, 3, 10, 30, 100, 300, TC-5214 and recovery monitored during 10 minutes. In addition, the same experimental protocol will be used with cells in control conditions to assess the stability of the measurements. Effects were measured in at least three cells.
# A use-dependent protocol was used to identify non-competitive inhibition of the receptors. Cells expressing the NMDA receptors were tested for their sensitivity to TC-5214 at 30 nM, using the same protocol as described above. Cells from the same batch were tested in parallel using the same incubation time with an identical concentration of TC-5214 (30 nM) but in absence of pulses during the incubation time with the compound. Two glutamate pulses were applied at the end of the incubation time, and recovery monitored as for the control conditions.
# [1] = Clinical trial for treatment of depression: rates of urinary tract infection and urinary retention; assay type: in vivo, human; conditions: oral tablets 0.1, 0.5, 2 or 4 mg BID
# Method: FIG. 24 is a table showing rates of urinary tract infection (UTI) and urinary retention in human patients administered dexmecamylamine in a yet unpublished clinical trial for treatment of depression. Patients received orally administered dexmecamylamine tablets of 0.1 mg, 0.5 mg, 2 mg or 4 mg BID (twice daily). At the end of the trial period, the patients were evaluated and the rates of side effects, including urinary tract infection (UTI) and urinary retention, were recorded.
# NMDA receptor NR1a-NR2B = NMDA receptor NR1a-NR2B (Homo sapiens, UniProt Q05586+Q13224); assay: Glutamate-evoked currents at NR1a-NR2B receptors in Xenopus oocytes (two electrode voltage-clamp); assay type: cell-based
# Method: as §1
# Briefly, ovaries are harvested from Xenopus Laevis females that have been deeply anesthetized and pithed following the animal rights rule from the Geneva canton. […] Data were filtered at 10 Hz, captured at 100 Hz and analyzed using HiQ proprietary data acquisition and analysis software running under Matlab (Mathworks Inc.).
# Oocytes expressing the NR1a-NR2A or NR1a-NR2B receptors were challenged at periodic intervals with a glutamate test pulse. Test drug was then applied during a sustained period and its effects monitored by measuring the amplitude and time course of the glutamate evoked currents. […]
# as §2, with “In addition, the same experimental protocol will be used with cells in control conditions to assess the stability of the measurements.” left out, “cells. […]” for “cells.”
# [2] = target: T1, α6-containing nicotinic receptors (Homo sapiens, UniProt Q15825); assay: α6-containing nicotinic receptors expressed in oocytes, stimulated with acetylcholine; assay type: cell-based; conditions: acetylcholine alone or with increasing concentrations
# T1 construct: expressed in transfected cells; host or cells: oocytes
# [3] = system: bladder function in anesthetized rats; assay: Intravesical model in anesthetized rats (increased bladder contraction frequency), cystometry; assay type: in vivo, rat; conditions: 1 μM and 10 μM intravesical infusion
# Method: Female Sprague Dawley rats (200-290 g) from Charles River France, housed in 3-4 rats per cage were anesthetized with urethane (1.2 g/kg) s.c., 3 mL/kg). A polyethylene catheter was implanted into the bladder through the dome. Ureters were tied and cut. Intravesical infusion periods with saline followed by an intravesical infusion period with one of the test compounds, hexamethonium (10 μM) or dexmecamylamine (1 and 10 μM), are depicted in FIG. 7.
# The intravesical anesthetized rat model is a model of increased bladder contraction frequency. The model is a “simplified” well established model used to evaluate OAB agents, recognizing that there are decreased inputs from cortical centers. This is the first known experiment using the intravesical anesthetized rat model of increased bladder contraction frequency to test dexmecamylamine for potential efficacy in treating OAB.
# α4β2 = α4β2 (Homo sapiens, UniProt P17787+P43681); conditions: 1 μM; cited from earlier work
# [4] = system: bladder function in conscious Sprague Dawley rats; assay: Oral administration (gavage) in awake, conscious rats, cystometry; conditions: 1 mg/kg oral gavage; for bladder contraction amplitude: compared to baseline/control; for change in spontaneous activity (SA), a surrogate for urge: compared to control; for change in bladder capacity / change in micturition interval / ICI / change in micturition volume: relative to baseline/control
# Method: A further study was conducted to evaluate the effects of TC-5214 on bladder function in awake, conscious Sprague Dawley rats.
# Nine female Sprague Dawley rats received intravesical saline at a rate of 10 mL/hr. Following a 60-minute baseline evaluation, rats were administered dexmecamylamine at a dose of 1 mg/kg by oral gavage, a dose previously determined to be the “No Effect Dose” in safety pharmacology studies. Two hours following the oral administration of dexmecamylamine, cystometric parameters were collected over a period of one hour.
# [5] = 3, 10, 30, 100, 300 nM, Glutamate 10 μM-Glycine 1 μM
# Chain of NMDA receptor NR1a-NR2A (Q12879 23-1464, other chains not shown): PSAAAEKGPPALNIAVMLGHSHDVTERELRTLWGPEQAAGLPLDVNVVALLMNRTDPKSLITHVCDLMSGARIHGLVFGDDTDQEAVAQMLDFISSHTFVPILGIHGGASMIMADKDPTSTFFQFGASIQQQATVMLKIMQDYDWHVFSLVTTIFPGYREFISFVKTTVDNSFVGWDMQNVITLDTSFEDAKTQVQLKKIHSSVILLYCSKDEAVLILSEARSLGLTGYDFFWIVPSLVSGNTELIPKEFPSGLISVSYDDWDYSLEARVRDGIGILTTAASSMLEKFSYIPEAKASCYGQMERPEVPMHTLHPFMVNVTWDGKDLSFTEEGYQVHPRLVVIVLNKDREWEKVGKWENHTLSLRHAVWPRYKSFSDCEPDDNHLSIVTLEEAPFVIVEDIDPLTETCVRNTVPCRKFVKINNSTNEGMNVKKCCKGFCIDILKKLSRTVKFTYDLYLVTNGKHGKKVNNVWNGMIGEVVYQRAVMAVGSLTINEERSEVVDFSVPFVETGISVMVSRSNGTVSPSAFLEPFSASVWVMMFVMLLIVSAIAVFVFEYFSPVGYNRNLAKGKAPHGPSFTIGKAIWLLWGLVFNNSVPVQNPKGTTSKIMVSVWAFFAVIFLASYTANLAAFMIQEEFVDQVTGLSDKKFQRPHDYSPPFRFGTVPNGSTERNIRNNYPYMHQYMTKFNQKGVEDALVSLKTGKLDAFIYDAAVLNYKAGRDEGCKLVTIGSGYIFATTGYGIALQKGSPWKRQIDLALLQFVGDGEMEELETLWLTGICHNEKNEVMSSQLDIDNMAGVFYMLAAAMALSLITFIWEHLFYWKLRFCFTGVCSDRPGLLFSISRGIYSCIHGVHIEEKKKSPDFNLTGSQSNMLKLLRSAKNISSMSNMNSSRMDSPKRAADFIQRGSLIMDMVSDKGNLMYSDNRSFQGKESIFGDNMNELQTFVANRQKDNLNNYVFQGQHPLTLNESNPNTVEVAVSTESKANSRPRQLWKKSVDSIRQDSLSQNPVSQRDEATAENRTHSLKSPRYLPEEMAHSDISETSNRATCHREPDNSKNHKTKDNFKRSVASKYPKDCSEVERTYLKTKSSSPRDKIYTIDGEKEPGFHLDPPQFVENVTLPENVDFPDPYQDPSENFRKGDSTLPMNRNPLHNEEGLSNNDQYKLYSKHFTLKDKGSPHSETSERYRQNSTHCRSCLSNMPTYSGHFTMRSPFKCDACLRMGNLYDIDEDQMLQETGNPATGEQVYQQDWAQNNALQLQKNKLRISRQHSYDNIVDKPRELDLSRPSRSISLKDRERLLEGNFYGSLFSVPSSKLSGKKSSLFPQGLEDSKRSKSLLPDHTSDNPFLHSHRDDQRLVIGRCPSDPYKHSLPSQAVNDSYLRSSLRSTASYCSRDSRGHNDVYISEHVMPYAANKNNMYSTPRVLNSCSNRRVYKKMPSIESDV
# Chain of NMDA receptor NR1a-NR2B (Q13224 27-1484, other chains not shown): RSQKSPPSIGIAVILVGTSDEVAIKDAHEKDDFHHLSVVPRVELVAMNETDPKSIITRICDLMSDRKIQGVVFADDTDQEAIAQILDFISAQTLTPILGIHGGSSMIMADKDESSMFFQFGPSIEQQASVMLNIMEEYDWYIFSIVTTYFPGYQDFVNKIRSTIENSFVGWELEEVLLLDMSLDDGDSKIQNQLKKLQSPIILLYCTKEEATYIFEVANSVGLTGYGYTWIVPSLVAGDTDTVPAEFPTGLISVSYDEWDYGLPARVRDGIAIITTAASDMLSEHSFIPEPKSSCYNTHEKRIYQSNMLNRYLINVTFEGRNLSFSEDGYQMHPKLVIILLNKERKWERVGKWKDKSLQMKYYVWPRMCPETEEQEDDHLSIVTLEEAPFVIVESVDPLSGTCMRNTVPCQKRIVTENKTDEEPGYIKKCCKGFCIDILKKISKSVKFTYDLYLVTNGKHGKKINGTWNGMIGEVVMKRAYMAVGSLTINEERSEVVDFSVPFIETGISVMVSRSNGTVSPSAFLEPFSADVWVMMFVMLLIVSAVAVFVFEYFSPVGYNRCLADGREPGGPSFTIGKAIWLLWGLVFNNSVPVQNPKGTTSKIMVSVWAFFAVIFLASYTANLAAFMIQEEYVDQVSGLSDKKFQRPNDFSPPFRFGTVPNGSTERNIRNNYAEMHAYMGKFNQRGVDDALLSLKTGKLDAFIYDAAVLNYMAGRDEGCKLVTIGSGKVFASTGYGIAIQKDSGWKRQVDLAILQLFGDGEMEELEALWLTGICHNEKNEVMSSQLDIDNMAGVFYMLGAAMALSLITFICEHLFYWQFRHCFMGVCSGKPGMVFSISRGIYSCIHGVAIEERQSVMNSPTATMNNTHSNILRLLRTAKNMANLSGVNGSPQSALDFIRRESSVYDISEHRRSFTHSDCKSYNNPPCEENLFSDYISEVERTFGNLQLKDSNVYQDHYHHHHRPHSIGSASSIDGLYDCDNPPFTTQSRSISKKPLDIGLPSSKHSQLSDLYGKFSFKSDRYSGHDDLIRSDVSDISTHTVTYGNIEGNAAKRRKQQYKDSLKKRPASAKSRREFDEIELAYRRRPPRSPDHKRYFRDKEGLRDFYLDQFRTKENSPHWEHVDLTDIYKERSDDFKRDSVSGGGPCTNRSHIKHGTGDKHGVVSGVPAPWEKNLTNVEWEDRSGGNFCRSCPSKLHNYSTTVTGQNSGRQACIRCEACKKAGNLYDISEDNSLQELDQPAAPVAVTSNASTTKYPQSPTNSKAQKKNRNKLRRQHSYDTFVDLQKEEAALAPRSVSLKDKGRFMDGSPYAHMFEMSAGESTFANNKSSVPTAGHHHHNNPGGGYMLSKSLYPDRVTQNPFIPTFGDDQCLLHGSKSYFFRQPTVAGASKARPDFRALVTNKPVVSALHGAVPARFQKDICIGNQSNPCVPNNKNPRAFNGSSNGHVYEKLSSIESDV
# Chain of α4β2 (P43681 29-627 limits assumed): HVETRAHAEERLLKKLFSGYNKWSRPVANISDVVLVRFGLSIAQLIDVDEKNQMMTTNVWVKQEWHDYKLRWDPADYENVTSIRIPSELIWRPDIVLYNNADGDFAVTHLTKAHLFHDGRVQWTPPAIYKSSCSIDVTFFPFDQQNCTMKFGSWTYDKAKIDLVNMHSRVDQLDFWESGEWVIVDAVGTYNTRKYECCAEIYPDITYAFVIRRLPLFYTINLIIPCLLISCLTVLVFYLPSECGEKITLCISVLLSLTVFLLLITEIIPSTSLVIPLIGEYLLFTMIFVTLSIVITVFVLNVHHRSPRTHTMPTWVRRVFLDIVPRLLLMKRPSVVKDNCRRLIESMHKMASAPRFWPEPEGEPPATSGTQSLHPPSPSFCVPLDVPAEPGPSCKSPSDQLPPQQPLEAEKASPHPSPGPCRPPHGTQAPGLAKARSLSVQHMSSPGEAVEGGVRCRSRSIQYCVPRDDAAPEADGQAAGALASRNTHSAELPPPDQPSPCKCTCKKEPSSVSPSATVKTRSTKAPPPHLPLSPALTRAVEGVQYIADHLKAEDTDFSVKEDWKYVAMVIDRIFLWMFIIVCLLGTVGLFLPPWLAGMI
# Chain of α4β2 (P17787 26-502): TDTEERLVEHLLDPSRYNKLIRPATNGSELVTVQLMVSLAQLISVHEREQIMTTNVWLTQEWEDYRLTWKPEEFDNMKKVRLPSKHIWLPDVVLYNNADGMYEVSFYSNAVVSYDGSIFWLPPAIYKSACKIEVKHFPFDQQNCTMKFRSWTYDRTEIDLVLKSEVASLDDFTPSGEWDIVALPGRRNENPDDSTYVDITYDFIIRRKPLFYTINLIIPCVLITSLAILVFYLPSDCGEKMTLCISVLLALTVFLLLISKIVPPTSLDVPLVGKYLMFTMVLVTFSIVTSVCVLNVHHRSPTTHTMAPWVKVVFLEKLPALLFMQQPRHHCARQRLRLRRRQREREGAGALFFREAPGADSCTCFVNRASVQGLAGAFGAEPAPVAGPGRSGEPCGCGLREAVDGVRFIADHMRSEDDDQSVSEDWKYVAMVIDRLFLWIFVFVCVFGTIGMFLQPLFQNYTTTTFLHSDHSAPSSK
# T1 sequence (Q15825 26-494): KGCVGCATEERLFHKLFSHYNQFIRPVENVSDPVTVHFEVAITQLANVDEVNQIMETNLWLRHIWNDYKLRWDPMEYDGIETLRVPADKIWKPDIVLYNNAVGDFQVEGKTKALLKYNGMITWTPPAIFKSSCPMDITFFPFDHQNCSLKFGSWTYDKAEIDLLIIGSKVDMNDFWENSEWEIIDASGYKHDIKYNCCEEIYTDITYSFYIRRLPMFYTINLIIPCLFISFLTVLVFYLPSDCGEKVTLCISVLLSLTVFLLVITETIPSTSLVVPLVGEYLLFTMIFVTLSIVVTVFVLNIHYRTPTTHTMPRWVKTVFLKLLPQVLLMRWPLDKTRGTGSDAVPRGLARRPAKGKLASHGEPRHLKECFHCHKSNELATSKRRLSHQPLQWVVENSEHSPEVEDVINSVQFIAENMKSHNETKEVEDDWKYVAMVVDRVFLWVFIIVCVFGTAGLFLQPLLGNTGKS
smiles,measurement,setting,value
"CNC1(C)[C@H]2CCC(C2)C1(C)C (stereo partly drawn) [TC-5214, (S)—N,2,3,3-tetramethylnorbornan-2-amine]",extent of inhibition over concentration range (FIG. 22),NMDA receptor NR1a-NR2A; [5],complete inhibition
same,concentration at which it potently inhibits,NMDA receptor NR1a-NR2A; FIG. 23 legend,10 to 30 nM
same,recovery following wash-out,NMDA receptor NR1a-NR2A; after sustained exposure,clear evidence for recovery
same,side effects due to urinary retention,[1],without therapy-limiting side effects due to urinary retention
same,extent of inhibition over concentration range (FIG. 22),NMDA receptor NR1a-NR2B; [5],partial inhibition
same,concentration at which it potently inhibits,NMDA receptor NR1a-NR2B; FIG. 23 legend,10 to 30 nM
same,sensitivity of α6-containing nicotinic receptors,[2],sensitive
same,bladder capacity (BC),[3],statistically significant increase
same,inter-contraction interval (ICI),[3],statistically significant increase
same,micturition frequency (MF),[3],statistically significant decrease
same,bladder contraction amplitude (AM),[3]; listed as dexmecamylamine,no significant decrease; also recorded: no significant change
same,modulation of α4β2 function,α4β2,positive modulation
same,bladder contraction amplitude,[4],placebo-like
same,bladder contraction amplitude,[4]; listed as dexmecamylamine,without producing detrimental changes; also recorded: insignificant effect
same,"change in spontaneous activity (SA), a surrogate for urge",[4],statistically significant differential
same,"change in spontaneous activity (SA), a surrogate for urge",[4]; listed as dexmecamylamine,significant decrease
same,bladder compliance,[4]; relative to baseline,without producing detrimental changes
same,micturition pressure,[4]; relative to baseline,without producing detrimental changes
same,change in bladder capacity,[4],statistically significant increase
same,change in micturition interval / ICI,[4],statistically significant increase
same,change in micturition volume,[4],statistically significant increase
same,change in bladder capacity,[4]; listed as dexmecamylamine,statistically significant (Student paired-t test) increases
same,change in micturition interval / ICI,[4]; listed as dexmecamylamine,statistically significant (Student paired-t test) increases
same,change in micturition volume,[4]; listed as dexmecamylamine,statistically significant (Student paired-t test) increases
same,micturition interval,"[4]; Last 1H (from 2 h after dosing), baseline First 1H 6.44 ± 1.24, FIG. 25 gives minutes",9.44 ± 1.87
same,RV (Bcap-MV),"[4]; Last 1H, baseline First 1H 0.06 ± 0.02",0.09 ± 0.04
same,B compliance,"[4]; Last 1H, baseline First 1H 0.11 ± 0.03",0.13 ± 0.03
same,Bcap,"[4]; Last 1H, baseline First 1H 1.04 ± 0.24",1.58 ± 0.31
same,SA (IMP-BP),"[4]; Last 1H, baseline First 1H 6.55 ± 2.01",6.99 ± 2.57
same,BP (baseline),"[4]; Last 1H, baseline First 1H 10.39 ± 1.96",8.60 ± 1.10
same,IMP,"[4]; Last 1H, baseline First 1H 16.94 ± 3.94",15.6 ± 2.91
same,TP,"[4]; Last 1H, baseline First 1H 23.27 ± 3.82",23.3 ± 2.0
same,NOEL,30 days oral,1 mg/kg/day
same,mortality and histopathologic changes,doses up to and including 50 mg/kg/day,did not produce any mortalities nor any histopathologic changes
